Read-outs that look alike come from different tables or passages of the source. Marks after values point to notes of the source that are not given here.
What was measured:
other kinases = assay: kinase specificity, other kinases versus TTK; format: biochemical
[1] = molecular target: T1, TTK kinase domain (amino acids 519-808) (Homo sapiens, UniProt P33981); assay: target residence time assay (Biacore T200 surface plasmon resonance), TTK; format: binding; details: SPR, 22° C.
T1 construct: recombinant expressed TTK kinase domain (amino acids 519-808)
T1 sequence (P33981 519-808): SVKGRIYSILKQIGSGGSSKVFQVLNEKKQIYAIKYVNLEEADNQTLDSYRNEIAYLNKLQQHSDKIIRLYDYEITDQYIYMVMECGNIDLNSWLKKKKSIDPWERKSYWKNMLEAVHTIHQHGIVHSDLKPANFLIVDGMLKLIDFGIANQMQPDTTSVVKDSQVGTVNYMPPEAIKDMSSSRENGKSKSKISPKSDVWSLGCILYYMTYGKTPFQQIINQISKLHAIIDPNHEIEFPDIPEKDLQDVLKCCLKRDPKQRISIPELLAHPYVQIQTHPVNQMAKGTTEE
Experimental: (§1) The affinity, i.e. the equilibrium dissociation constant (KD) (referred to as residence times), of the compound of formula (I) against TTK and PLK1 were determined using a Biacore T200™ surface plasmon resonance instrument using recombinant expressed TTK kinase domain (amino acids 519-808) or biotinylated PLK1. The immobilization of TTK was performed as described in Maia et al. Annals of Oncology, 2015; 26:2180-2192. The immobilization of biotinylated PLK1 was performed as described in Willemsen-Seegers et al. Journal of Molecular Biology, 2017; 429:574-586. The subsequent single cycle kinetic assays were performed at 22° C. using a compound concentration gradient of […], 10, 31.6 and 100 nM for TTK and 10, 31.6, 100, 316 and 1000 nM for PLK1, a contact time of 100 s and a flow rate of […]. The dissociation period was 1200-1800 s and a correction for an unstable surface using a blank run with buffer was performed.

biotinylated PLK1 = molecular target: T2, biotinylated PLK1 (Homo sapiens, UniProt P53350); assay: target residence time assay (Biacore T200 surface plasmon resonance), PLK1; format: binding; details: SPR, 22° C.
T2 construct: biotin (biotinylated)
Experimental: as §1

tumor-derived TTK = molecular target: T3, tumor-derived TTK (Homo sapiens, UniProt P33981); assay: tumor TTK target occupancy in MDA-MB-231 xenograft-bearing mice; format: in vivo; details: MDA-MB-231 tumors
T3 construct: from tissue; host or cells: MDA-MB-231 xenograft tumours grown in mice
T3 sequence (P33981 1-857): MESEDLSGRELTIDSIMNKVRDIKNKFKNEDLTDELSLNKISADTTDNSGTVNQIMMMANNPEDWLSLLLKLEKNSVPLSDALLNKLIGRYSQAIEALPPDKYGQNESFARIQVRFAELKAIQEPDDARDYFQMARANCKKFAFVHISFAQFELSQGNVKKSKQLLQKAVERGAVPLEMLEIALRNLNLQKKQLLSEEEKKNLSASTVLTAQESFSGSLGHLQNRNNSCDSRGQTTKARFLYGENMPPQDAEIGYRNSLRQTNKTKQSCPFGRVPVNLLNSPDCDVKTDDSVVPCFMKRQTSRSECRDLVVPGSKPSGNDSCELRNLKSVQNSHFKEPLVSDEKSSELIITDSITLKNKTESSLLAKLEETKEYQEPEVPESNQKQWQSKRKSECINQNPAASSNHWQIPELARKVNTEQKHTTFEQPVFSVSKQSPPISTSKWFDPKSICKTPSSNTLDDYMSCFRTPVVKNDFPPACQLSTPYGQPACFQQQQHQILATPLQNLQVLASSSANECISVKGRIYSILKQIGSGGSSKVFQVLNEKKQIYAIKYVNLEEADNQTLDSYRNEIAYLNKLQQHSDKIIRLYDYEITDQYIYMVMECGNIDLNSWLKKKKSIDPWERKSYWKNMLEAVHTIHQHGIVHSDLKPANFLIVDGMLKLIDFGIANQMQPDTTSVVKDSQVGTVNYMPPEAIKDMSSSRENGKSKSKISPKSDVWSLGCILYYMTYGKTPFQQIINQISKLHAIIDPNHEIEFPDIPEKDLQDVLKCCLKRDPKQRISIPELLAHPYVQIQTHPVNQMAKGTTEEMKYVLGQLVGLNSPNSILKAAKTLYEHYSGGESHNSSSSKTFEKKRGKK
Experimental: Prolonged TTK target occupancy was also measured in tumors derived from MDA-MB-231 xenograft-bearing mice treated with intermittent i.v. dosing regimen of compound of formula (I). […]

[2] = test system: 18 different triple negative breast cancer cell lines; assay: 5-day anti-proliferative screen of 18 triple negative breast cancer cell lines; format: cell-based; details: 120 h; 5-day screen, 18 TNBC cell lines; read-out: median GI50
Description: (§2) In cellular systems, the compound of formula (I) has high potency against sensitive cells.

[3] = test system: patient-derived tumor xenografts, including TNBC and hepatocellular cancer (HCC) models; assay: monotherapy activity against patient-derived tumor xenografts in mice; format: in vivo; details: data not shown
Description: as §2

[4] = maximum tolerated dose in combination with carboplatin in non-tumor-bearing mice; format: in vivo
Description: Carboplatin is standard of care treatment in a number of tumor indications. To determine the combination effect of the compound of formula (I) and carboplatin, the maximum tolerated dose (MTD) of the compound of formula (I) in combination with an optimal dose of carboplatin was first defined in non-tumor-bearing BALB/c nude mice. […]

BR1282 TNBC PDX tumor [5] = assay: first PDX combination study (carboplatin first), BR1282
Experimental: In a first PDX study, female BALB/c nude mice (CrownBio) of at least 20 g body weight were subcutaneously (s.c.) inoculated in the right flank with tumor fragments (3*3*3 mm) from stock mice bearing the patient-derived xenograft (PDX) triple negative breast cancer (TNBC) tumor, BR1282. Randomization into 5 different treatment groups (8 mice per group) was made when the mean tumor size was 150-200 mm^3. Mice were dosed intravenously (i.v.) twice weekly (2qw) with the compound of formula (I) (7 mg/kg, i.v., 5 mL/kg) or once weekly (qw) carboplatin (60 mg/kg, i.v., 10 mL/kg) or the combination of these doses, in which the compound of formula (I) was administered after carboplatin using either a 4 h or a 24 h gap, when both compounds were administered on the same day/consecutive days. The fifth group received both vehicles using the time interval of 4 h and all groups were dosed twice via the tail vein. Dosing was delayed by 1 day in any mice showing transient body weight loss of >10% at any time point.
(§3) Carboplatin was purchased from Qilu Pharmaceutical Co. Ltd. as a solution (10 mg/mL in 5% (w/v) glucose in pure water). The compound of formula (I) was supplied as a powder by Basilea Pharmaceutica International Ltd. and was prepared freshly as a solution in Ethanol:PEG400:Citric acid 20 mM, at a ratio of 1:1:8 and at a final pH of 3.7, for immediate administration.
(§4) Body weights and tumor volumes were determined at least twice per week, the latter by measuring two dimensions with calipers and applying the formula “V=(L×W^2)/2”, where V is the tumor volume, and L and W are the tumor length and width re-spectively. […] Mice were also culled if the BWL was determined to be >15% for 3 consecutive days. Any mice with >10% BWL, automatically were dosed on one of the following days, as soon as the BWL returned to <10%. All animal protocols were reviewed and approved by the relevant local committees in China, where the studies were performed.
(§5) The statistical significance of efficacy were determined in two different ways using a) the endpoint on day 10 or day 14 depending on the study when it was necessary to cull the vehicle group because of tumor volume exceeding 1500 mm^3, and b) at the endpoint of day 31 in the first study when exponential curve fits were applied to estimate the rates of tumor growth in the different groups. The degree of an effect was quantified by the delta (A) treated/control ratio (ΔT/C) and the statistical significance of the effect was determined by a one-way analysis of variance (1W-ANOVA) with Holms-Sidak applied post-hoc for multiple determinations, where a p-value of <0.05 was considered statistically significant. In addition, an assessment of the combination effect was made based upon the Clarkes Combination Index (CCI), where the CCI=ΔT/CAB−(ΔT/CA*ΔT/CB) in which A and B are two different compounds and AB the combination thereof, where CCI<−0.1 indicates synergy (or a positive interaction), +0.1 (antagonism, or a negative interaction) and between −0.1 and +0.1 indicates additivity (no interaction); see O'Reilly et al. Anti Cancer Drugs 2011; 22:58-78.

BR1282 TNBC PDX tumor [6] = assay: second PDX combination study (compound of formula (I) first), BR1282
Experimental: In a second PDX study, the same model was used as for the first study (TNBC BR1282 PDX model), but this time compound of formula (I) (8 mg/kg, i.v., qw, 5 mL/kg) was administered first and carboplatin (60 mg/kg, i.v., qw, 6 mL/kg) second using a 4 h gap between both administrations and compound of formula (I) was provided qw. Consequently, the mice received both compounds on the same day (4 h gap).
as §3, §4, §5

SKOV-3 s.c. xenografts = format: in vivo; details: day 23
Experimental: The anti-tumor activity of the compound of formula (I) in combination with carboplatin was evaluated in an ovarian cancer model, using human SKOV-3 cells grown as a solid tumor xenograft subcutaneously (s.c.) in nude mice.
The maximum tolerated dose (MTD) of the compound of formula (I) in combination with an optimal dose of carboplatin was defined in non-tumor bearing BALB/c nude mice in the experiments described above. […] Thus, in this study, using a human ovarian cell line derived xenograft (CDX) model, that schedule was applied and compared directly with the same order of administration with a 1 hr or 24 hr gap between compounds. In addition, the twice-weekly schedule was compared with a weekly schedule of 7 mg/kg BAL0891 (a weekly dose well below the MTD for compound of formula (I) monotherapy) using a 4 hr gap. Treatments continued until day 24 and tumor volumes and body weight were monitored until day 51.

T2 sequence (P53350 whole entry): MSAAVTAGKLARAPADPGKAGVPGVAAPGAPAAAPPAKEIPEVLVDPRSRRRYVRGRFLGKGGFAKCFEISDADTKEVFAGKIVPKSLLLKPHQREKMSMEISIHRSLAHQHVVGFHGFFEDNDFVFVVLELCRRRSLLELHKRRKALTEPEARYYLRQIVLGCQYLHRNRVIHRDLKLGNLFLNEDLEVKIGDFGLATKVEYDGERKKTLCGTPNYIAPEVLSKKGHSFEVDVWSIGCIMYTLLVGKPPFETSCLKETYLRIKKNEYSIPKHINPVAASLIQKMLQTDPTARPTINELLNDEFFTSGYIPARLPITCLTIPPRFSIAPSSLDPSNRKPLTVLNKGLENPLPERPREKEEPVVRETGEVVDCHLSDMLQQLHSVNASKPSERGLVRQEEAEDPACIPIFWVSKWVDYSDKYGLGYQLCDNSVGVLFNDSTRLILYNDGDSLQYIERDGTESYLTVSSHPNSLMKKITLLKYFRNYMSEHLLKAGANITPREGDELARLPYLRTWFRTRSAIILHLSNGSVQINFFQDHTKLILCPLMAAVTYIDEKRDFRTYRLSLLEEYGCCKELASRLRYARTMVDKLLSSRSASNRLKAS

COc1cc(N2CCNCC2)ccc1Nc1ncc2c(n1)-n1ccc(C(=O)Nc3c(C)cccc3C)c1CC2 [Compound of formula (I)]
other kinase IC50s higher than those for TTK (other kinases): at least 10 fold | target-residency on TTK [1]: > 12 h | target-residency on PLK1 (biotinylated PLK1): a few minutes | time TTK completely occupied after last dose (tumor-derived TTK; i.v. twice-weekly, last MTD dose): at least 72 h | time tumor-derived TTK fully drug-occupied after last administration (tumor-derived TTK; i.v. weekly MTD dosing, repeat experiment): up to 6 days | GI50 [2]: 35 nM | activity against patient-derived tumor xenografts [3]: significant activity | highest tolerated doses of compound of formula (I) in combination with carboplatin ([4]; 2qw i.v., 4 or 24 hours after carboplatin 60 mg/kg qw i.v.): 6 to 7 mg/kg | tolerability when compound of formula (I) applied first ([4]; 6-8 mg/kg, 24 h gap to carboplatin or 2qw schedule): not tolerated | tolerated dose of compound of formula (I) when applied before carboplatin ([4]; weekly, carboplatin 60 mg/kg i.v. qw 4 h later): 8 mg/kg | Efficacy: ΔT/C Day 0 up to Day 31 (BR1282 TNBC PDX tumor [5]; based on mean rate of growth (k), formula (I) 7 mg/kg 2qw i.v., carboplatin 60 mg/kg qw i.v., carboplatin first): 0.41*** | Mean difference of mean rate of growth (k), Vehicle vs. treatment (BR1282 TNBC PDX tumor [5]; comparator Vehicle, day 0 to latest day 31): 0.084 | Efficacy: ΔT/C Day 10 (BR1282 TNBC PDX tumor [5]; mean change in tumor volume, formula (I) 7 mg/kg 2qw i.v., carboplatin 60 mg/kg qw i.v., carboplatin first): 0.58 | Tolerability (Day 10) ΔBW (%) (BR1282 TNBC PDX tumor [5]; mouse, in vivo): 0.5 ± 1.6% | Tolerability (Day 10) ΔI/C (BR1282 TNBC PDX tumor [5]; mouse, in vivo): 0.96 | Efficacy: ΔT/C Day 0 up to Day 17 (BR1282 TNBC PDX tumor [6]; based on mean rate of growth (k), formula (I) 8 mg/kg qw first, carboplatin 60 mg/kg qw 4 h later): 0.70 | k means, Mean difference, Vehicle vs. treatment (BR1282 TNBC PDX tumor [6]; comparator Vehicle): 0.045 | Δ tumor volume on day 14, Mean difference, Vehicle vs. treatment (BR1282 TNBC PDX tumor [6]; comparator Vehicle): 422.3 | Efficacy: ΔT/C Day 14 (BR1282 TNBC PDX tumor [6]; mean change in tumor volume, formula (I) 8 mg/kg qw i.v. first, carboplatin 60 mg/kg qw i.v. 4 h later): 0.60 | Tolerability (Day 14) ΔBW (%) (BR1282 TNBC PDX tumor [6]; mouse, in vivo): 2.7 ± 2.1% | Tolerability (Day 14) ΔT/C (BR1282 TNBC PDX tumor [6]; mouse, in vivo): 1.00 | ΔT/C (SKOV-3 s.c. xenografts; monotherapy Formula (I) 7 mg/kg iv qw): 0.69 | ΔT/C (SKOV-3 s.c. xenografts; monotherapy: Formula (I) 7 mg/kg iv 2qw, Carboplatin 60 mg/kg iv qw): 0.64
